Experimental data from the supplement of paper PMC10307832.

Experiments:
Assay in all cases: relative viability (nuclei count vs DMSO), 5 days (fraction); higher = more cells survive
BAM7 + AZD7762 = compound: CCOC1=CC=CC=C1N=NC2=C(NN(C2=O)C3=NC(=CS3)C4=CC=CC=C4)C [BAM7] + NC(=O)Nc1cc(-c2cccc(F)c2)sc1C(=O)N[C@H]1CCCNC1 [AZD7762] (partner 0.2 µM)
In short: (§1)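 After 5 days of treatment, lung cancer cells in 1536-well plates were fixed and stained in a single step (final 0.05% Triton X-100, 1% formaldehyde, 1 ug/ml Hoechst) and their nuclei counted on 4× images. Treatment had been applied by pin tool the day after seeding as one drug alone or as a fixed anchor-drug dose with five library-drug doses (not always all listed) in √10 steps. Relative viability is the nuclei count of treated wells divided by that of vehicle wells, and values are medians of duplicate plates.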

[1] = compound: CCn1c(-c2nonc2N)nc2c(C#CC(C)(C)O)ncc(OC[C@H]3CCCNC3)c21 + Nc1ncn([C@H]2C[C@H](O)[C@@H](CO)O2)c(=O)n1 [Decitabine] (partner 2 µM)
In short: as §1

[2] = compound: CCn1c(-c2nonc2N)nc2c(C#CC(C)(C)O)ncc(OC[C@H]3CCCNC3)c21 + C[C@@H](Oc1cc(-c2cnn(C3CCNCC3)c2)cnc1N)c1c(Cl)ccc(F)c1Cl [Crizotinib] (partner 1 µM)
In short: as §1

BAM7 + Palbociclib = compound: CCOC1=CC=CC=C1N=NC2=C(NN(C2=O)C3=NC(=CS3)C4=CC=CC=C4)C [BAM7] + CC(=O)c1c(C)c2cnc(Nc3ccc(N4CCNCC4)cn3)nc2n(C2CCCC2)c1=O [Palbociclib] (partner 0.5 µM)
In short: as §1

Row | Cell Line | relative viability (BAM7 + AZD7762; first compound 0.5 µM) | relative viability (BAM7 + AZD7762; first compound 5 µM) | relative viability (BAM7 + AZD7762; first compound 15.81 µM) | relative viability (BAM7 + AZD7762; first compound 50 µM) | relative viability ([1]; first compound 0.01 µM) | relative viability ([1]; first compound 0.03162 µM) | relative viability ([1]; first compound 0.1 µM) | relative viability ([1]; first compound 0.3162 µM) | relative viability ([1]; first compound 1 µM) | relative viability ([2]; first compound 0.01 µM) | relative viability ([2]; first compound 0.03162 µM) | relative viability ([2]; first compound 0.1 µM) | relative viability ([2]; first compound 0.3162 µM) | relative viability ([2]; first compound 1 µM) | relative viability (BAM7 + Palbociclib; first compound 0.5 µM) | relative viability (BAM7 + Palbociclib; first compound 5 µM) | relative viability (BAM7 + Palbociclib; first compound 15.81 µM) | relative viability (BAM7 + Palbociclib; first compound 50 µM)
1 | NCI-H838 | 0.919 | 0.968 | 0.862 | 1 | 0.452 | 0.416 | 0.482 | 0.44 | 0.497 | 0.805 | 0.969 | 0.826 | 0.835 | 0.841 | 0.24 | 0.243 | 0.222 | 0.218
2 | HARA | 0.21 | 0.269 | 0.356 | 0.195 | 0.508 | 0.486 | 0.656 | 0.551 | 0.498 | 0.976 | 1.01 | 1.05 | 1.03 | 1.02 | 0.253 | 0.224 | 0.229 | 0.243
3 | NCI-H2087 | 1.34 | 1.47 | 1.25 | 1.07 | 0.327 |  | 0.283 | 0.208 | 0.326 | 0.729 | 0.748 | 0.942 | 0.847 | 0.732 | 0.272 | 0.255 | 0.229 | 0.292
4 | NCI-H1437 | 1.1 | 1.11 | 0.945 | 1.02 | 0.558 | 0.541 | 0.564 | 0.611 | 0.627 | 0.911 | 0.821 | 0.899 | 0.936 | 0.927 | 0.318 | 0.326 | 0.306 | 0.326
5 | NCI-H1792 | 0.681 | 0.65 | 0.605 | 0.633 | 0.558 | 0.499 | 0.547 | 0.419 | 0.518 | 0.961 | 0.948 | 0.95 | 0.891 | 0.78 | 0.642 | 0.687 | 0.624 | 0.66
